Structures are written as SMILES. ≈ marks a conversion by molar mass, not a printed value. Calls of active or inactive are those of the source. The rule behind the calls is not given here.

Broadly, the LC50 is the concentration lethal to half of the exposed cells or organisms. A lower LC50 goes with greater toxicity.

Assay [1] concerns Rhopalosiphum padi. In words: Insecticidal activity against adult Rhopalosiphum padi infested wheat plant assessed as reduction in xylem ingestion at 0.4 mg/l applied to the roots for 6 hr by electrical penetration graphical analysis relative to control. Type of assay: functional, organism-based.
In assay [2] the test system is Rhopalosiphum padi. In words: Insecticidal activity against adult Rhopalosiphum padi infested wheat plant assessed as reduction in occurrences of phloem ingestion at 0.4 mg/l applied to the roots for 6 hr by electrical penetration graphical analysis relative to control. Format: functional, organism-based.
Assay [3] relates to Rhopalosiphum padi. In words: Insecticidal activity against adult Rhopalosiphum padi infested wheat plant assessed as reduction in occurrences of salivation into sieve elements at 0.4 mg/l applied to the roots for 6 hr by electrical penetration graphical analysis relative to control. Type of assay: functional, organism-based.
In assay [4] the test system is Rhopalosiphum padi. In words: Insecticidal activity against adult Rhopalosiphum padi infested wheat plant assessed as total time of xylem ingestion at 0.4 mg/l applied to the roots for 6 hr by electrical penetration graphical analysis (reference value: 23.1 +/- 4.5 min). Type of assay: functional.
Assay [5] concerns Rhopalosiphum padi. The assay is described as follows: Insecticidal activity against adult Rhopalosiphum padi infested wheat plant assessed as total time of phloem ingestion at 0.4 mg/l applied to the roots for 6 hr by electrical penetration graphical analysis (reference value: 296.4 +/- 39.3 min). Type of assay: functional.
For assay [6], the system named is Rhopalosiphum padi. In words: Insecticidal activity against adult Rhopalosiphum padi infested wheat plant assessed as total time of salivation into sieve elements at 0.4 mg/l applied to the roots for 6 hr by electrical penetration graphical analysis (reference value: 35.4 +/- 6.8 secs). Format: functional.
For assay [7], the system named is Rhopalosiphum padi. In words: Insecticidal activity against adult Rhopalosiphum padi infested wheat plant assessed as time taken for first xylem ingestion occurrence at 0.4 mg/l applied to the roots for 6 hr by electrical penetration graphical analysis (reference value: 145.5 +/- 27.1 min). Type of assay: functional.
For assay [8], the system named is Rhopalosiphum padi. In words: Insecticidal activity against adult Rhopalosiphum padi infested wheat plant assessed as time taken for first phloem activity occurrence at 0.4 mg/l applied to the roots for 6 hr by electrical penetration graphical analysis (reference value: 141.9 +/- 18.1 min). Format: functional.
Assay [9] deals with Rhopalosiphum padi. The assay is described as follows: Toxicity against Rhopalosiphum padi infested wheat plant assessed as mortality at 1000 mg/l applied to upper plant for 1 min followed by basipetal transportation for 48 hr measured 48 hr after removal of upper plant parts relative to control. Format: functional.
Assay [10] concerns Rhopalosiphum padi. In words: Toxicity against Rhopalosiphum padi infested wheat plant assessed as mortality at 1000 mg/l applied to upper plant for 1 min followed by basipetal transportation for 48 hr measured 24 hr after removal of upper plant parts relative to control. Format: functional.
Assay [11] deals with Rhopalosiphum padi. The assay is described as follows: Toxicity against first-instar nymph of Rhopalosiphum padi assessed as reduction in reproductive rate at 0.4 mg/l applied to roots measured after 16 days relative to control. Format: functional, organism-based.
Assay [12] concerns Rhopalosiphum padi. The assay is described as follows: Toxicity against first-instar nymph of Rhopalosiphum padi assessed as time until reproductive maturity at 0.4 mg/l applied to roots (reference value: 6.6 +/- 0.52 days). Type of assay: functional.
For assay [13], the system named is Rhopalosiphum padi. In words: Toxicity against first-instar nymph of Rhopalosiphum padi assessed as reduction in weight at 0.4 mg/l applied to roots measured after 7 days relative to control. Format: functional, organism-based.
Assay [14] concerns Rhopalosiphum padi. In words: Insecticidal activity against adult Rhopalosiphum padi infested wheat plant assessed as bout duration of xylem ingestion at 2 mg/l applied to the roots for 6 hr by electrical penetration graphical analysis (reference value: 20.4 +/- 4.5 min). Format: functional.
The test system of assay [15] is Rhopalosiphum padi. In words: Insecticidal activity against adult Rhopalosiphum padi infested wheat plant assessed as bout duration of phloem ingestion at 2 mg/l applied to the roots for 6 hr by electrical penetration graphical analysis (reference value: 277.2 +/- 30.8 min). Format: functional.
In assay [16] the test system is Rhopalosiphum padi. The assay is described as follows: Insecticidal activity against adult Rhopalosiphum padi infested wheat plant assessed as bout duration of salivation into sieve elements at 2 mg/l applied to the roots for 6 hr by electrical penetration graphical analysis (reference value: 32.4 +/- 3 secs). Format: functional.
For assay [17], the system named is Rhopalosiphum padi. The assay is described as follows: Insecticidal activity against adult Rhopalosiphum padi infested wheat plant assessed as reduction in xylem ingestion at 2 mg/l applied to the roots for 6 hr by electrical penetration graphical analysis relative to control. Format: functional, organism-based.
Assay [18] relates to Rhopalosiphum padi. The assay is described as follows: Insecticidal activity against adult Rhopalosiphum padi infested wheat plant assessed as reduction in occurrences of phloem ingestion at 2 mg/l applied to the roots for 6 hr by electrical penetration graphical analysis relative to control. Type of assay: functional, organism-based.
Assay [19] relates to Rhopalosiphum padi. The assay is described as follows: Insecticidal activity against adult Rhopalosiphum padi infested wheat plant assessed as reduction in occurrences of salivation into sieve elements at 2 mg/l applied to the roots for 6 hr by electrical penetration graphical analysis relative to control. Format: functional, organism-based.
Assay [20] concerns Rhopalosiphum padi. The assay is described as follows: Insecticidal activity against adult Rhopalosiphum padi infested wheat plant assessed as total time of xylem ingestion at 2 mg/l applied to the roots for 6 hr by electrical penetration graphical analysis (reference value: 23.1 +/- 4.5 min). Type of assay: functional.
For assay [21], the system named is Rhopalosiphum padi. The assay is described as follows: Insecticidal activity against adult Rhopalosiphum padi infested wheat plant assessed as total time of phloem ingestion at 2 mg/l applied to the roots for 6 hr by electrical penetration graphical analysis (reference value: 296.4 +/- 39.3 min). Format: functional.
Assay [22] deals with Rhopalosiphum padi. In words: Insecticidal activity against adult Rhopalosiphum padi infested wheat plant assessed as total time of salivation into sieve elements at 2 mg/l applied to the roots for 6 hr by electrical penetration graphical analysis (reference value: 35.4 +/- 6.8 secs). Format: functional.
Assay [23] has as its system Rhopalosiphum padi. In words: Insecticidal activity against adult Rhopalosiphum padi infested wheat plant assessed as frequency of phloem ingestion at 0.4 mg/l applied to the roots for 6 hr by electrical penetration graphical analysis (reference value: 2.85 +/- 0.18 Hz). Format: functional.
In assay [24] the test system is Rhopalosiphum padi. The assay is described as follows: Insecticidal activity against adult Rhopalosiphum padi infested wheat plant assessed as frequency of xylem ingestion at 0.4 mg/l applied to the roots for 6 hr by electrical penetration graphical analysis (reference value: 8.2 +/- 0.3 Hz). Format: functional.
The subject of assay [25] is Rhopalosiphum padi. The assay is described as follows: Insecticidal activity against adult Rhopalosiphum padi infested wheat plant assessed as bout duration of xylem ingestion at 0.4 mg/l applied to the roots for 6 hr by electrical penetration graphical analysis (reference value: 20.4 +/- 4.5 min). Type of assay: functional.
Assay [26] relates to Rhopalosiphum padi. In words: Insecticidal activity against adult Rhopalosiphum padi infested wheat plant assessed as bout duration of phloem ingestion at 0.4 mg/l applied to the roots for 6 hr by electrical penetration graphical analysis (reference value: 277.2 +/- 30.8 min). Type of assay: functional.
For assay [27], the system named is Rhopalosiphum padi. In words: Insecticidal activity against adult Rhopalosiphum padi infested wheat plant assessed as bout duration of salivation into sieve elements at 0.4 mg/l applied to the roots for 6 hr by electrical penetration graphical analysis (reference value: 32.4 +/- 3 secs). Type of assay: functional.
In assay [28] the test system is Rhopalosiphum padi. The assay is described as follows: Toxicity against Rhopalosiphum padi infested wheat plant assessed as mortality at 1000 mg/l applied to upper plant for 1 min followed by basipetal transportation for 24 hr measured 48 hr after removal of upper plant parts relative to control. Format: functional.
For assay [29], the system named is Rhopalosiphum padi. The assay is described as follows: Toxicity against Rhopalosiphum padi infested wheat plant assessed as mortality at 1000 mg/l applied to upper plant for 1 min followed by basipetal transportation for 24 hr measured 24 hr after removal of upper plant parts relative to control. Type of assay: functional.
Assay [30] deals with Rhopalosiphum padi. The assay is described as follows: Toxicity against Rhopalosiphum padi infested wheat plant applied to the roots measured after 48 hr. Format: functional.
For assay [31], the system named is Rhopalosiphum padi. The assay is described as follows: Toxicity against Rhopalosiphum padi infested wheat plant applied to the roots measured after 24 hr. Type of assay: functional.
Assay [32] concerns Rhopalosiphum padi. In words: Contact toxicity against Rhopalosiphum padi infested wheat plant applied as spray measured after 24 hr. Type of assay: functional.

On to `CC1CC(O)N2CCN(Cc3ccc(Cl)nc3)C2=C1[N+](=O)[O-]` (centres undefined), for which the outcome in the assay with Rhopalosiphum padi [1], in the assay with Rhopalosiphum padi [2] and with Rhopalosiphum padi [3] was inactive. Also, the Time in the assay on Rhopalosiphum padi [4] came out at 10.4 min; with Rhopalosiphum padi [5], 218.8 min; in the assay on Rhopalosiphum padi [6], 64.3 s; in the assay with Rhopalosiphum padi [7] it was 141.5 min; with Rhopalosiphum padi [8] it was 139.8 min; in the assay with Rhopalosiphum padi [12], 8.39 days. The Time in the assay with Rhopalosiphum padi [14] is on record as 0 min; with Rhopalosiphum padi [15], 0 min; with Rhopalosiphum padi [16] it was 0 s; with Rhopalosiphum padi [20], 0 min; in the assay on Rhopalosiphum padi [21] it was 0 min; in the assay with Rhopalosiphum padi [22], 0 s. The results for the Time in the assay with Rhopalosiphum padi [25], in the assay on Rhopalosiphum padi [26] and with Rhopalosiphum padi [27] were 9.7 min, 206.8 min and 59.5 s, respectively. Besides, the Activity worked out at 59.9% in the assay on Rhopalosiphum padi [9]; 18.4% in the assay on Rhopalosiphum padi [10]; 1.96 Hz in the assay on Rhopalosiphum padi [23]; 7.03 Hz in the assay with Rhopalosiphum padi [24]; 33.2% with Rhopalosiphum padi [28]; 14.3% with Rhopalosiphum padi [29]. Moreover, the outcome in the assay on Rhopalosiphum padi [11], with Rhopalosiphum padi [13], in the assay with Rhopalosiphum padi [17], with Rhopalosiphum padi [18] and with Rhopalosiphum padi [19] was Active. Also, the LC15 with Rhopalosiphum padi [30] turned out to be 0.09 µg/mL (≈ 0.277 µM); in the assay with Rhopalosiphum padi [31] it was 0.4 µg/mL (≈ 1.23 µM). Also, the 50% lethal concentration (LC50) worked out at 2.4 µg/mL (≈ 7.39 µM) with Rhopalosiphum padi [30] (Rhopalosiphum padi, 48 h); 23.4 µg/mL (≈ 72.1 µM) with Rhopalosiphum padi [31] (Rhopalosiphum padi, 24 h); 2.45 µg/mL (≈ 7.54 µM) in the assay on Rhopalosiphum padi [32].
For the compound `O=[N+]([O-])/N=C1\NCCN1Cc1ccc(Cl)nc1` [IMIDACLOPRID], the Activity in the assay with Rhopalosiphum padi [9] is recorded as 7.1%; in the assay on Rhopalosiphum padi [10], 3.5%; in the assay with Rhopalosiphum padi [28], 6.7%; in the assay on Rhopalosiphum padi [29], 3.1%. In addition, in the assay on Rhopalosiphum padi [32], the LC50 turned out to be 0.9 µg/mL (≈ 3.52 µM).

Values taken from ChEMBL document CHEMBL3046903, “Systemic action of novel neonicotinoid insecticide IPP-10 and its effect on the feeding behaviour of Rhopalosiphum padi on wheat” (2010).
